Data set [1] can be described thus: In vitro intrinsic clearance in murine microsomes. Format: in vitro ADME. The settings on record: mouse, pH 7.4; murine microsomes 0.5 mg/ml, 1 μM compound, 37° C., up to 1 hour; read-out: murine MS Clint. The method, then:
(§1) Metabolic stability of the compounds of the invention has been assessed by measurement of the in vitro intrinsic clearance in murine and human microsomes.
(§2) 10 mM stock solutions of markers and test compounds were prepared in DMSO. These were diluted 100-fold in 91:9 MeCN:DMSO to obtain a 100 μM assay stock. 10 mM NADPH was made up in 0.1M phosphate buffer (pH7.4). Microsomes were thawed in a waterbath at 37° C., and diluted to give a final assay concentration of 0.5 mg/ml.
(§3) 100 μM assay stocks were added to give a final concentration of 1 μM to incubation tubes containing buffer and NADPH (final assay concentration is 1 mM). Incubation tubes and microsomes were pre-warmed at 37° C. for 3 minutes. The microsomes were then added to the incubation tubes which were kept at 37° C. and shaken using the orbital shaker for the duration of the assay. Samples were taken at 6 pre-determined time points up to 1 hour and transferred to the prepared quench tubes containing an appropriate solvent with internal standard.
(§4) Quenched samples are mixed thoroughly and protein precipitated at −20° C. for a minimum of 12 hours. Samples were then centrifuged at 4° C. Supernatants were transferred to a fresh 96 well plate, compatible with the auto-sampler. The plate was sealed with a pre-slit silicone mat and analyzed by LC-MS/MS.

A further data set concerns SJSA-1 xenograft. Nature of the data set: In vivo efficacy in the SJSA-1 xenograft model in mice. Conditions: for effect of treatment on tumors (in words): 14 doses of 12.5 mg/kg p.o., SJSA-1 xenograft; for inhibition in vivo at 12.5 mg/kg: Mus musculus, po, 12.5 mg/kg p.o., q1d, SJSA-1 xenograft in Crl:CD-1-Foxn1nu mice, mean; for regrowth of lesions during follow-up: after 14 doses of 12.5 mg/kg p.o., follow-up to day 101. How it is done: The experiment was conducted on female mice from the Crl:CD-1-Foxn1nu strain. Mice were inoculated subcutaneously in the right flank with cancer cell line SJSA-1 in the amount of 3×10^6 cells suspended in 100 μl HBSS: Matrigel matrix in a 3:1 ratio per mouse. On the 17th day after inoculation mice were divided into groups, so that in each group the mean tumor volume was similar and averaged around 200 mm^3. Experiment groups were selected, each consisting of 8 mice: Control NaCl 0.9% and compounds. Compounds 1-11 were dissolved in 56.60% PEG 400, 9.43% Cremophor RH40, 9.43% ETOH, 18.87% Labrafil M1944CS, 5.67% DMSO. For Compound 107 from WO2015/189799, group of 7 mice was used, and it was dissolved in 15% PEG400, 10% Cremophor EL, 75% H2O.
[…] During the course of experiment mice were weighed before each administration, —twice/thrice a week. Animal welfare was monitored daily. No significant difference in body weight or welfare was observed between experiment groups during and at the end of study.
Change in tumor volume was monitored twice/thrice a week starting from the first day of administration. Tumor volume was calculated based on its length and width measured with an electronic calipers: V[mm^3]=d^2×D/2
The tumor volume in the groups was measured up to 101 days after inoculation (72 days after last administration). Results of the experiment were expressed as mean values of tumor growth inhibition (TGI) ±SEM (Table 4). Tumor growth inhibition was calculated using the following formula TGI [%]=[100−[…]]
where C— mean tumor size in control group, T—mean tumor size in treated group. All calculations and graphs were performed using GraphPad Prism 5 software.

In data set [2] the test system is SJSA-1 osteosarcoma cell line. Nature of the data set: Cell viability MTT assay. Type of data set: cell-based. Conditions: Homo sapiens, 72 h incubation, average of 2-5 experiments. The method, then:
The effect of the invented p53-Mdm2 inhibitors on cell viability has been assessed using MTT assay. It is a colorimetric assay that measures conversion of tetrazolium ring of the soluble yellow dye (MTT) into insoluble purple formazan. This process is catalyzed solely in mitochondrial dehydrogenases of living cells.
Cells were seeded on 96-well plates and then treated with successive dilutions of tested compounds. After 72 h incubation, MTT was added to the final concentration 0.5 mg/ml. The cells were further incubated for the next 4 h. Then the solution was drained and the remaining formazan crystals were dissolved in 100 μl DMSO. […] All the MTT experiments were independently repeated 2-5 times. Dose-dependent binding curves and IC50 values were calculated using GraphPad Prism 5. The presented IC50 values represent the average value from all the performed experiments (Table 3).

Data set [3] can be described thus: In vitro intrinsic clearance in human microsomes. Format: in vitro ADME. Conditions: pH 7.4; human microsomes 0.5 mg/ml, 1 μM compound, 37° C., up to 1 hour; read-out: human MS Clint. The method, then:
as §1, §2, §3, §4

For a further data set, the target named is p53-Mdm2 interaction (Homo sapiens (Human), UniProt Q00987). Nature of the data set: Fluorescence polarization (FP) binding assay, inhibition of p53-Mdm2 interaction. The settings on record: 75 nM Mdm2 (amino acids 1-111), 10 nM FAM-labelled p53 peptide; IC50 transformed to Ki using Kenakin equation. The method, then: The inhibition of p53-Mdm2 interaction was measured using a fluorescence polarization (FP) binding assay. FP measures the rotational movement of molecules in a homogenous suspension. For this assay, N-terminal domain of Mdm2 protein (amino acids 1-111) is combined with a fluorescein-labeled (FAM) peptide derived from p53 trans-activation domain (Sequence: 5-FAM-TSFAEYWNLLSP). Upon excitation of the fluorescent ligand with linearly polarized light the peptide emits perpendicularly polarized light. If the peptide is bound by Mdm2, rotation will slow down and the perpendicular component will proportionally decrease. In opposition disruption of the peptide-Mdm2 complex due to binding of an inhibitor to the p53 binding site of Mdm2 results in releasing of peptide and decreasing of emitted light polarization.
Fluorescence polarization experiments were read on Biotek Cytation 5 reader with the 470 nm excitation and 520 nm emission filters for fluorescein. The fluorescence polarization was measured in black 96-well plates (Corning, CLS3991) in room temperature. Purity of Mdm2 was controlled at >95%. Reaction buffer was optimized by adding 5 mM DTT and 0.1% zwitterionic detergent CHAPS to reduce effect of nonspecific interactions.
The test was performed by combining successive dilution of compounds diluted in dimethyl sulfoxide (DMSO, 5% final concentration) with 75 nM Mdm2 in reaction buffer (PBS, 0.1% CHAPS, 5 mM DTT (dithiothreitol)). After 15 minutes of incubation in room temperature 10 nM FAM-labelled peptide was added. Final reading was performed after 90 minutes of incubation. Dose-dependent binding curves and IC50 values were calculated using GraphPad Prism5 and next transformed to Ki values using Kenakin equation (Table 2).

Where [4] appears, read: after 7 doses, read-out: TGI P.O. 12.5 mg/kg (7 doses) [%].
Setting [5] is: after 12 doses, read-out: TGI P.O. 12.5 mg/kg (12 doses) [%].

Like-named read-outs stand apart in the source and are kept apart here.

In general, IC50 refers to the point on the concentration scale where inhibition reaches its midpoint. Low readings indicate higher potency, high ones lower potency. What is called Ki is the dissociation constant of the complex between target and ligand, obtained from inhibition or displacement. Lower therefore signals tighter binding.

Chain of p53-Mdm2 interaction (Q00987 1-111): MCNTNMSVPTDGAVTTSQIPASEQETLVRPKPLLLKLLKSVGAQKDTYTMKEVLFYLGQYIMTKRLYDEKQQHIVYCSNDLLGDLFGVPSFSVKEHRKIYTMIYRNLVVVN

For `COc1ncc(-n2cc3c(c2C(C)C)[C@@]2(C(=O)Nc4cc(Cl)ccc42)N(c2ccc(F)c(F)c2)C3=O)c(OC)n1` [Compound 7, (3S)-6-chloro-2′-(3,4-difluorophenyl)-5′-(2,4-dimethoxypyrimidin-5-yl)-6′-(propan-2-yl)-1,2,3′,5′-tetrahydro-2′H-spiro[indole-3,1′-pyrrolo[3,4-c]pyrrole]-2,3′-dione], the microsomal CLint at 1 μM in data set [1] is 6.6 µL/min/mg; in data set [3] it was less than 3 µL/min/mg. In the data set on SJSA-1 xenograft, the “effect of treatment on tumors (in words)” value was “complete eradication of tumors”. Also, the inhibition in vivo at 12.5 mg/kg with SJSA-1 xenograft (setting [4]) is 95%; in the data set with SJSA-1 xenograft (setting [5]) it was 100%. In the data set on SJSA-1 xenograft, the “regrowth of lesions during follow-up” value is given as “none of the lesions exhibited regrowth”. This molecule also registered an IC50 in data set [2] of 0.22 µM. The same molecule yielded a Ki at p53-Mdm2 interaction of 1.9 nM.

For the molecule `COc1cc(OC)c(-n2cc3c(c2C(C)C)[C@@]2(C(=O)Nc4cc(Cl)ccc42)N(c2ccc(F)c(F)c2)C3=O)cn1` [Compound 8, (3S)-6-chloro-2′-(3,4-difluorophenyl)-5′-(4,6-dimethoxypyridin-3-yl)-6′-(propan-2-yl)-1,2,3′,5′-tetrahydro-2′H-spiro[indole-3,1′-pyrrolo[3,4-c]pyrrole]-2,3′-dione], the microsomal CLint at 1 μM in data set [1] is 12.8 µL/min/mg; in data set [3] it was less than 3 µL/min/mg. Moreover, in the data set with SJSA-1 xenograft, the “effect of treatment on tumors (in words)” value is “complete eradication of tumors”. Besides, the inhibition in vivo at 12.5 mg/kg in the data set on SJSA-1 xenograft (setting [4]) worked out at 96.4%; with SJSA-1 xenograft (setting [5]), 99.7%. The “regrowth of lesions during follow-up” value in the data set on SJSA-1 xenograft was “none of the lesions exhibited regrowth”. The IC50 in data set [2] stood at 0.15 µM. On p53-Mdm2 interaction, affinity was put at a Ki of 1.9 nM.

`COc1ncc(-n2cc3c(c2C(C)C)[C@@]2(C(=O)Nc4cc(Cl)ccc42)N(c2cc(Cl)c(F)cc2F)C3=O)c(OC)n1` [Compound 10, (3S)-6-chloro-2′-(5-chloro-2,4-difluorophenyl)-5′-(2,4-dimethoxypyrimidin-5-yl)-6′-(propan-2-yl)-1,2,3′,5′-tetrahydro-2′H-spiro[indole-3,1′-pyrrolo[3,4-c]pyrrole]-2,3′-dione]: the microsomal CLint at 1 μM is less than 3 µL/min/mg in data set [1] and less than 3.2 µL/min/mg in data set [3]. In addition, the inhibition in vivo at 12.5 mg/kg in the data set with SJSA-1 xenograft (setting [4]) was determined as 93.5%; with SJSA-1 xenograft (setting [5]) it was 98.8%. In data set [2], inhibition was half-maximal at 0.4 µM (IC50). On p53-Mdm2 interaction, this molecule displayed a Ki of 2 nM.

The record behind these values is patent US12415811B2, “1,2,3',5'-tetrahydro-2'h-spiro[indole-3,1'-pyrrolo[3,4-C]pyrrole]-2,3'-dione compounds as therapeutic agents activating TP53” (ADAMED PHARMA, S.A., priority 2018, dated 2025).
